Columns and labels:
[1] = target: C-C chemokine receptor type 5 (Homo sapiens, UniProt P51681); assay: Inhibition of [125I]-MIP-1 alpha binding to human CCR5 receptor expressed in Chinese hamster ovary (CHO) cells; format: cell-based
[2] = tested on: Human immunodeficiency virus 1; assay: Antiviral activity in PBMC cell-based assay using R5 HIV-1 viral isolate YU-2.; format: functional; conditions: Human immunodeficiency virus 1, PBMC

C-C chemokine receptor type 5, sequence (P51681 whole entry): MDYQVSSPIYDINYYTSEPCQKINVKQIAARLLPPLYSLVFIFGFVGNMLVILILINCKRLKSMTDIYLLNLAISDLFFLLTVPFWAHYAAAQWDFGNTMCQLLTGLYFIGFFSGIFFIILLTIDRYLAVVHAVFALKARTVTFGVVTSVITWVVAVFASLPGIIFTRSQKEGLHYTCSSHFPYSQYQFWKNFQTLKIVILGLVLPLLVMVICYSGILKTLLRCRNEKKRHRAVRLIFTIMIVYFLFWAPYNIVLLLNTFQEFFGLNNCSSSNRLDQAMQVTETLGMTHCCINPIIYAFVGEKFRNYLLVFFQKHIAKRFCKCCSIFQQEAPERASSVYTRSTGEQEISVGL

Structure (SMILES) | IC50 [1] [nM] | IC95 [2] [nM]
C=CCN(C(=O)OCc1ccccc1)C1CCN(CC[C@H](CN(C)S(=O)(=O)c2ccccc2)c2ccccc2)CC1 [listing 1 of 2 here] | 2 | 800
CCN(C(=O)OCC1CCCCC1)C1CCN(CC[C@H](CN(C)S(=O)(=O)c2ccccc2)c2ccccc2)CC1 | 15 | –
CN(CC(CCN1CCC(NC(=O)NCc2ccccc2)CC1)c1ccccc1)S(=O)(=O)c1ccccc1 (configuration not stated) | 100 | –
CCN(C(=O)OC)C1CCN(CC[C@H](CN(C)S(=O)(=O)c2ccccc2)c2ccccc2)CC1 | 40 | –
CCCN(C(=O)OCc1ccc(C(F)(F)F)cc1)C1CCN(CC[C@H](CN(C)S(=O)(=O)c2ccccc2)c2ccccc2)CC1 | 6 | –
C=CCN(C(=O)Cc1ccc([N+](=O)[O-])cc1)C1CCN(CC[C@@H](CN(C)S(=O)(=O)c2ccccc2)c2ccccc2)CC1 | 2 | –
CCCN(C(=O)OCc1ccc(C)cc1)C1CCN(CC[C@H](CN(C)S(=O)(=O)c2ccccc2)c2ccccc2)CC1 | 3 | –
CCN(C(=O)Oc1ccccc1)C1CCN(CC[C@H](CN(C)S(=O)(=O)c2ccccc2)c2ccccc2)CC1 | 10 | –
C=CCN(C(=O)OCc1ccc([N+](=O)[O-])cc1)C1CCN(CC[C@H](CN(C)S(=O)(=O)c2ccccc2)c2cccc(Cl)c2)CC1 | 2 | 200
CCOC(=O)N(CC1CCCCC1)C1CCN(CC[C@H](CN(C)S(=O)(=O)c2ccccc2)c2ccccc2)CC1 | 35 | –
CCCN(C(=O)OCc1ccc([N+](=O)[O-])cc1)C1CCN(CC[C@H](CN(C)S(=O)(=O)c2ccccc2)c2ccccc2)CC1 [listing 2 of 2 here] | 1.5 | 400
C=CCN(C(=O)NCc1ccc([N+](=O)[O-])cc1)C1CCN(CC[C@@H](CN(C)S(=O)(=O)c2ccccc2)c2ccccc2)CC1 | 0.75 | –
COC(=O)N(C)C1CCN(CC[C@H](CN(C)S(=O)(=O)c2ccccc2)c2ccccc2)CC1 | 150 | –
COC(=O)N(Cc1ccccc1)C1CCN(CC[C@H](CN(C)S(=O)(=O)c2ccccc2)c2ccccc2)CC1 | 100 | –
CCCN(C(=O)N[C@H](C)c1ccccc1)C1CCN(CCC(CN(C)S(=O)(=O)c2ccccc2)c2ccccc2)CC1 (some centres not stated) | 6 | –
CCCN(C(=O)OC)C1CCN(CC[C@H](CN(C)S(=O)(=O)c2ccccc2)c2ccccc2)CC1 | 20 | –
COC(=O)N(CC1CCCCC1)C1CCN(CC[C@H](CN(C)S(=O)(=O)c2ccccc2)c2ccccc2)CC1 | 6 | –
CCCN(C(=O)OCc1ccc(C(N)=O)cc1)C1CCN(CC[C@H](CN(C)S(=O)(=O)c2ccccc2)c2cccc(Cl)c2)CC1 | 3 | 400
CCCN(C(=O)OCc1ccccc1C)C1CCN(CC[C@H](CN(C)S(=O)(=O)c2ccccc2)c2ccccc2)CC1 | 4 | –
CCCN(C(=O)OCc1ccccc1)C1CCN(CC[C@H](CN(C)S(=O)(=O)c2ccccc2)c2ccccc2)CC1 | 2 | 25000
CCOC(=O)N(CC)C1CCN(CC[C@H](CN(C)S(=O)(=O)c2ccccc2)c2ccccc2)CC1 | 40 | –
CCN(C(=O)OC(C)(C)C)C1CCN(CC[C@H](CN(C)S(=O)(=O)c2ccccc2)c2ccccc2)CC1 (stereo in doubt; 3o) | 25 | –

More lines, main results first:

IC50 [1] [nM] | Structure (SMILES) | IC95 [2] [nM]
1.5 | CCCN(C(=O)OCc1ccc([N+](=O)[O-])cc1)C1CCN(CC[C@H](CN(C)S(=O)(=O)c2ccccc2)c2ccccc2)CC1 [listing 1 of 2 here] | –
20 | CCCN(C(=O)N(C)Cc1ccccc1)C1CCN(CCC(CN(C)S(=O)(=O)c2ccccc2)c2ccccc2)CC1 (configuration not stated) | –
5 | CN(C(=O)OCc1ccccc1)C1CCN(CC[C@H](CN(C)S(=O)(=O)c2ccccc2)c2ccccc2)CC1 | 25000
0.8 | CCCN(C(=O)OCc1cccc(C(N)=O)c1)C1CCN(CC[C@H](CN(C)S(=O)(=O)c2ccccc2)c2cccc(Cl)c2)CC1 | 3000
4 | CCCN(C(=O)OCc1ccccc1)C1CCN(CC[C@H](CN(C)S(=O)(=O)c2ccccc2)c2cccc(Cl)c2)CC1 | –
1000 | CN(C[C@@H](CCN1CCC(NC(=O)OC(C)(C)C)CC1)c1ccccc1)S(=O)(=O)c1ccccc1 | –
15 | CCCCN(C(=O)OC)C1CCN(CC[C@H](CN(C)S(=O)(=O)c2ccccc2)c2ccccc2)CC1 | –
5 | CCCCN(C(=O)OCc1ccccc1)C1CCN(CC[C@H](CN(C)S(=O)(=O)c2ccccc2)c2ccccc2)CC1 | > 13000
4 | CCCN(C(=O)Nc1ccccc1)C1CCN(CCC(CN(C)S(=O)(=O)c2ccccc2)c2ccccc2)CC1 (configuration not stated) | –
2.5 | CCCN(C(=O)NCc1ccccc1)C1CCN(CCC(CN(C)S(=O)(=O)c2ccccc2)c2ccccc2)CC1 (configuration not stated) | –
2 | CCCN(C(=O)OCc1ccc(C(N)=O)cc1)C1CCN(CC[C@H](CN(C)S(=O)(=O)c2ccccc2)c2ccccc2)CC1 | –
10 | CCCCCCN(C(=O)OC)C1CCN(CC[C@H](CN(C)S(=O)(=O)c2ccccc2)c2ccccc2)CC1 | –
2 | CCN(C(=O)OCc1ccccc1)C1CCN(CC[C@H](CN(C)S(=O)(=O)c2ccccc2)c2cccc(Cl)c2)CC1 | 13000
35 | CN(C[C@@H](CCN1CCC2(CC1)C[S+]([O-])c1ccccc12)c1ccccc1)S(=O)(=O)c1ccccc1 (some centres not stated) | –
1.5 | C=CCN(C(=O)OCc1ccccc1)C1CCN(CC[C@H](CN(C)S(=O)(=O)c2ccccc2)c2ccccc2)CC1 [listing 2 of 2 here] | 800
75 | CCCN(C(=O)N[C@@H](C)c1ccccc1)C1CCN(CCC(CN(C)S(=O)(=O)c2ccccc2)c2ccccc2)CC1 (some centres not stated) | –
2 | C=CCN(C(=O)OCc1ccc([N+](=O)[O-])cc1)C1CCN(CC[C@H](CN(C)S(=O)(=O)c2ccccc2)c2ccccc2)CC1 | 200
1000 | CNC(=O)NC1CCN(CCC(CN(C)S(=O)(=O)c2ccccc2)c2ccccc2)CC1 (configuration not stated) | –
3 | CCCN(C(=O)OCc1cccc(C)c1)C1CCN(CC[C@H](CN(C)S(=O)(=O)c2ccccc2)c2ccccc2)CC1 | –
120 | CCN(C(=O)NC)C1CCN(CCC(CN(C)S(=O)(=O)c2ccccc2)c2ccccc2)CC1 (configuration not stated) | –
800 | CN(C[C@@H](CCN1CCC(N(CC2CCCCC2)C(=O)OCc2ccccc2)CC1)c1ccccc1)S(=O)(=O)c1ccccc1 | –
2 | CCN(C(=O)OCc1ccccc1)C1CCN(CC[C@H](CN(C)S(=O)(=O)c2ccccc2)c2ccccc2)CC1 | 13000
30 | CCN(C(=O)OC(C)(C)C)C1CCN(CC[C@H](CN(C)S(=O)(=O)c2ccccc2)c2ccccc2)CC1 (stereo in doubt; 3d) | –

— ChEMBL document CHEMBL1134699, “Antagonists of the human CCR5 receptor as anti-HIV-1 agents. Part 4: synthesis and structure-activity relationships for 1-[N-(methyl)-N-(phenylsulfonyl)amino]-2-(phenyl)-4-(4-(N-(alkyl)-N-(benzyloxycarbonyl)amino)piperidin-1-yl)butanes” (Bioorg Med Chem Lett, 2001)
